“And” between values parts separate entries of the source, which are not always exact repeats. Identical values can stand only once.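 Five compound concentrations were applied to cells in 96-well plates for 48 hours; endpoints were derived by simple linear interpolation of the resulting dose-response curve. At the GI50, growth is halved. TGI denotes the concentration required for complete inhibition of growth.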
Columns and labels:
Test in all cases: DTP human tumour cell line panel, 48 h
DU-145 prostate = test system: DU-145 prostate
HOP-62 NSCLC = test system: HOP-62 NSCLC
LOX IMVI melanoma = test system: LOX IMVI melanoma
NCI-H23 lung = test system: NCI-H23 lung
NCI-H460 lung = test system: NCI-H460 lung
NCI-H522 lung = test system: NCI-H522 lung
SF-539 CNS = test system: SF-539 CNS
SNB-75 CNS = test system: SNB-75 CNS
U251 CNS = test system: U251 CNS
UACC-257 melanoma = test system: UACC-257 melanoma

| Structure (SMILES) | GI50 (DU-145 prostate) | TGI (DU-145 prostate) | GI50 (HOP-62 NSCLC) | TGI (HOP-62 NSCLC) | GI50 (LOX IMVI melanoma) | TGI (LOX IMVI melanoma) | GI50 (NCI-H23 lung) | TGI (NCI-H23 lung) | GI50 (NCI-H460 lung) | TGI (NCI-H460 lung) | GI50 (NCI-H522 lung) | TGI (NCI-H522 lung) | GI50 (SF-539 CNS) | TGI (SF-539 CNS) | GI50 (SNB-75 CNS) | TGI (SNB-75 CNS) | GI50 (U251 CNS) | TGI (U251 CNS) | GI50 (UACC-257 melanoma) | TGI (UACC-257 melanoma) |
| --- | --- | --- | --- | --- | --- | --- | --- | --- | --- | --- | --- | --- | --- | --- | --- | --- | --- | --- | --- | --- |
| CCC(O)c1ccc(Br)cc1NC(=O)c1cccc(Cl)c1 (stereo not given) | 34.5 µM | > 100 µM | 20 µM | 44.6 µM | 9.03 µM | 25 µM | 22.4 µM | 86.6 µM | 21.9 µM | 78.5 µM | 19.8 µM | 81 µM | 31.8 µM | > 100 µM | 10.8 µM | > 100 µM | 14.1 µM | 31.8 µM | 18.4 µM | 35.1 µM |
| O=S(=O)(NC1=NCCN1C(=S)SN1CCn2c1nsc2=S)c1cccc2ccccc12 | 19.3 µM | 49.2 µM | 20.6 µM | 54.3 µM | 20.4 µM | 55 µM | 20.9 µM | 80.9 µM | 20.4 µM | > 100 µM | 12.2 µM | 36.1 µM | 21.1 µM | 46 µM | 24.3 µM | > 100 µM | 20.6 µM | 49.9 µM | 24.3 µM | 97.2 µM |
| O=C(/C=C/C12c3ccccc3C(c3ccccc31)C1C(=O)NC(=O)C12)c1ccc(Cl)cc1Cl (stereo not given) | 1.83 µM | 3.43 µM | 2.06 µM | 4.71 µM | 1.88 µM | 3.57 µM | 2.02 µM | 4.1 µM | 1.85 µM | 3.82 µM | 1.69 µM | 3.41 µM | 1.59 µM | 2.96 µM | 1.64 µM | 3.08 µM | 1.68 µM | 3.06 µM | 1.76 µM | 3.46 µM |
| COC(=O)C1C(O)CCC2CN3CCc4c([nH]c5ccccc45)C3CC21 (stereo not given) | – | > 100 µM | > 100 µM | > 100 µM | – | > 100 µM | – | > 100 µM | – | > 100 µM | – | > 100 µM | – | > 100 µM | – | > 100 µM | – | > 100 µM | – | > 100 µM |
| CC(C)c1c(-c2ccccc2)nc2c(C#N)c[nH]n2c1=O | 37.1 µM | > 100 µM | 25.4 µM | > 95.7 µM | 29 µM | > 91.2 µM | 26.1 µM | > 79.6 µM | 32.6 µM | > 100 µM | 26 µM | 80 µM | 29.4 µM | > 100 µM | 21.4 µM | > 95.2 µM | 33.8 µM | > 100 µM | 23.1 µM | 66.9 µM |
| COc1cc(F)c(F)c(Nc2ccc(I)cc2F)c1NS(=O)(=O)C1(C[C@H](O)CO)CC1 | 5.02 µM | > 10 µM | 0.184 µM | > 10 µM | 0.556 µM | > 10 µM | 0.283 µM | > 10 µM | 1.62 µM | > 10 µM | 3.72 µM | > 10 µM | > 6.57 µM | > 10 µM | 2.62 µM | > 10 µM | 2.09 µM | > 10 µM | 0.0239 µM | 0.2 µM |
| CCNc1cc(-c2cccc(OC(F)(F)F)c2)nc2ccc(N3CCCC3)cc12 | 2.2 µM | 5.88 µM | 1.62 µM | 3.16 µM | 1.69 µM | 3.26 µM | 1.84 µM | 4.47 µM | 1.75 µM | 4.1 µM | 1.45 µM | 3.65 µM | 1.73 µM | 3.36 µM | 1.53 µM | 4.5 µM | 1.68 µM | 3.62 µM | 1.66 µM | 3.46 µM |
| COC(=O)c1cc2c3ccccc3n3c(=O)c4cc5ccc(N(S(=O)(=O)c6ccc(C)cc6)S(=O)(=O)c6ccc(C)cc6)cc5nc4c(n1)c23 | > 100 µM | > 100 µM | 16.1 µM | 45 µM | 48.5 µM | > 100 µM | 36.6 µM | > 100 µM | > 100 µM | > 100 µM | 83.7 µM | > 100 µM | 25.4 µM | > 100 µM | 44.5 µM | > 100 µM | 10.1 µM | 45.2 µM | > 100 µM | > 100 µM |
| CN(C)CCNc1ccc(CO)c2sc3ccc(O)cc3c(=O)c12 | – | 4.05 µM | – | 4.23 µM | – | 6.75 µM | – | 4.14 µM | – | 2.87 µM | – | 3.49 µM | – | 6.9 µM | – | 9.62 µM | – | 7.46 µM | – | 15.7 µM |
| Cc1ncc(C(=O)Nc2ccc(CN3CCN(C)CC3)c(C(F)(F)F)c2)cc1C#Cc1cnc2cccnn12 | 0.413 µM | 2.17 µM | 0.423 µM | 4.14 µM | 0.183 µM | 0.672 µM | 0.221 µM | 1.01 µM | 0.501 µM | 1.53 µM | 0.58 µM | 2.4 µM | 0.485 µM | 1.18 µM | 1.04 µM | 1.99 µM | 0.727 µM | 2.6 µM | 0.531 µM | 4.43 µM |
| CC(C)Nc1cc(-c2c[nH]c(C(=O)N[C@H](CO)c3cccc(Cl)c3)c2)c(Cl)cn1 | 5.96 µM and 9.49 µM | 20.4 µM and > 10 µM | 3.93 µM and 0.479 µM | 26.4 µM and > 10 µM | 0.157 µM and 0.316 µM | 12.8 µM and > 10 µM | 0.308 µM and 0.258 µM | 16 µM and > 10 µM | 1.35 µM and 1.05 µM | 15.8 µM and > 10 µM | 2.33 µM and 2.35 µM | 19.8 µM and > 10 µM | 6.04 µM | 20.2 µM and > 10 µM | 4.5 µM and > 5.45 µM | 19.8 µM and > 10 µM | 1.71 µM and 1.09 µM | 18 µM and > 10 µM | 0.0732 µM | 0.519 µM |
| CCCCCCCCCCCCCCCCCC1=NC(C)(C)CN1CC(C)O (stereo not given) | 3.66 µM | 13.1 µM | 5.69 µM | 26 µM | 1.81 µM | 3.44 µM | 12.7 µM | 27.1 µM | 2.78 µM | 7.06 µM | 4.5 µM | 23.8 µM | 4.03 µM | 19.1 µM | 9.11 µM | 23.6 µM | 4.89 µM | 19.9 µM | 22.4 µM | 40.6 µM |
| O=C(Nc1cc(C(F)(F)F)ccc1Cl)c1ccc(NC2=C(Cl)C(=O)N(Cc3ccccc3)C2=O)cc1 | 26.9 µM | 80.9 µM | > 100 µM | > 100 µM | 4.11 µM | > 100 µM | 18.9 µM | 43.9 µM | 34.3 µM | > 100 µM | 11.1 µM | 28 µM | 28.9 µM | 77.5 µM | 56.1 µM | > 100 µM | 22.6 µM | > 100 µM | 31.7 µM | 96.9 µM |
| O=C1c2ccccc2-[n+]2ccc3c([nH]c4ccccc43)c21 | – | 2.54 µM | – | 2.56 µM | – | 0.81 µM | – | 2.76 µM | – | 1.43 µM | – | 1.3 µM | – | 1.45 µM | – | 1.93 µM | – | 1.47 µM | – | 1.88 µM |
| CC[C@H](Nc1ncnc2nc[nH]c12)c1nc2cccc(F)c2c(=O)n1-c1ccccc1 | 45.3 µM | > 100 µM | > 100 µM | > 100 µM | 28 µM | > 100 µM | 80.8 µM | > 100 µM | 36.3 µM | > 100 µM | 28.8 µM | > 100 µM | 19.7 µM | > 100 µM | 0.715 µM | 16.6 µM | 51.2 µM | > 100 µM | 18.9 µM | > 100 µM |
| CC(C)c1cnn2c(NCc3ccccc3)cc(NC[C@H]3CCNC[C@@H]3O)nc12 | 0.4 µM and 0.309 µM | 11.4 µM and 9.62 µM | 0.225 µM and 0.348 µM | 1.33 µM and 3.13 µM | 0.0945 µM and 0.0967 µM | 1.49 µM and 0.542 µM | 0.463 µM | 2.98 µM | 0.0583 µM and 0.0817 µM | 1.7 µM and 3.31 µM | 0.844 µM and 0.438 µM | 2.7 µM and 2.43 µM | 0.292 µM and 0.436 µM | 1.68 µM and 1.43 µM | 0.515 µM and 1.32 µM | 2.04 µM and 2.83 µM | 0.378 µM and 0.382 µM | 10.7 µM and 10.4 µM | 0.656 µM and 0.716 µM | 4.78 µM and 5.18 µM |
| Nc1nonc1-c1nc2cnccc2n1C1CC1 | 10.6 µM | > 25 µM | 5.33 µM | > 16.8 µM | 6.54 µM | > 18 µM | 7.3 µM | > 25 µM | 6.83 µM | > 25 µM | 3.43 µM | 13.2 µM | 2.54 µM | 10.1 µM | 3.02 µM | > 18.5 µM | 9.09 µM | > 25 µM | 18.1 µM | > 25 µM |
| CCOC(=O)C(Cc1c[nH]c2c(N(CCO)CCO)cccc12)(NC(C)=O)C(=O)OCC | 499 µM | > 1000 µM | > 1000 µM | > 1000 µM | 141 µM | 283 µM | > 1000 µM | > 1000 µM | 642 µM | > 1000 µM | > 1000 µM | > 1000 µM | > 1000 µM | > 1000 µM | 50.9 µM | 249 µM | 183 µM | 420 µM | > 1000 µM | > 1000 µM |
| C=CCNc1nc2c(s1)C(=O)c1ccccc1C2=O | – | 35.6 µM | – | 26.7 µM | – | 19.6 µM | – | 21.8 µM | – | 28.5 µM | – | 21.4 µM | – | 16.7 µM | – | 38.8 µM | – | 20.1 µM | – | 7.2 µM |
| Cn1c(-c2c(N)n(Nc3cccc(Cl)c3)c3nc(C#N)c(C#N)nc23)nc2ccccc21 | 6.46 µM | 15.4 µM | 15.6 µM | 43.4 µM | 5.25 µM | 11.5 µM | 2.88 µM | 13.2 µM | 13.3 µM | > 50 µM | 1.06 µM | 8.19 µM | 1.38 µM | 10.3 µM | 8.33 µM | 35.1 µM | 7.92 µM | 15.3 µM | 6.18 µM | 15.9 µM |
| COc1ccc2c(=O)cc(-c3ccccc3)[nH]c2c1 | 1.24 µM | > 53.1 µM | 9.74 µM | > 100 µM | 4.17 µM | > 100 µM | 1.25 µM | > 100 µM | 0.397 µM | > 42 µM | 0.698 µM | 14.2 µM | 0.584 µM | 3.37 µM | – | > 100 µM | 0.707 µM | > 100 µM | 0.335 µM | > 100 µM |
